In brackets after ≈: the same amount, converted by molar mass.
Legend:
H9 = experiment: Inhibition human H9 cell growth assessed as cell density at 15 uM after 3 days by cell count assay; assay type: cell-based; conditions: h9, 72 h
[1] = system: Human immunodeficiency virus 1; experiment: Antiviral activity against HIV1 3B replication in human H9 cells after 1 hr by p24 antigen capture assay; assay type: functional, organism-based; conditions: Human immunodeficiency virus 1, 3B, H9, 1 h

`C[C@@]1(O)C[C@@]23CC[C@H]4[C@@]5(CCC[C@]4(C)C(=O)OC5)[C@@H]2CC[C@H]1C3` [TRIPTERIFORDIN] was tested, and the Activity (H9) was “Non-toxic” and the EC50 [1] was 1 mg/L (≈ 3.14 µM).
